Source: patent US10086030B2, “Use of composition in preparing health care products or medicines for preventing and treating allergic diseases” (JIANGZHONG PHARMACEUTICAL CO., LTD., priority 2012, dated 2018)
Several values for one entry are separate records, joined by “and”; a condition that tells them apart may be missing. Identical values can stand only once.

What was measured:
[1] = test system: passive anaphylaxis (PCA) in rats caused by ovalbumin; test: Passive anaphylaxis (PCA) in rats caused by ovalbumin: diameter of blue spots, mast cell degranulation, serum histamine; format: in vivo, SD rats; conditions: for Diameter of blue spots 1:4: 1:4 anti-ovalbumin serum; for Diameter of blue spots 1:8: 1:8 anti-ovalbumin serum
Description: On day 15, the back of the rats were shaved, and was intradermally injected with a diluted antiserum at two spots on each side with 0.1 ml per spot. After 48 hours, a 1.0 ml mixed solution of 1% Evans Blue and 1% ovalbumin in physiological saline was injected into the tail vein of each rat. […] The rats were then sacrificed, and their back skin was inverted to measure the diameter of blue reaction spots to determine the difference between the dosing groups and the model group. A sample of the rat skin tissue was fixed with neutral formaldehyde, dehydrated with an alcohol gradient, embedded in paraffin, and examined for mast cell degranulation in the tissue[^3]. […] On day 15, the back of the rats were shaved, and was intradermally injected with a diluted antiserum at two spots on each side with 0.1 ml per spot. After 48 hours, a 1.0 ml mixed solution of 1% Evans Blue and 1% ovalbumin in physiological saline was injected into the tail vein of each rat. […] The rats were then sacrificed, and their back skin was inverted to measure the diameter of blue reaction spots to determine the difference between the dosing groups and the model group. A sample of the rat skin tissue was fixed with neutral formaldehyde, dehydrated with an alcohol gradient, embedded in paraffin, and examined for mast cell degranulation in the tissue^[3]. […] On day 15, the back of the rats were shaved, and was intradermally injected with a diluted antiserum at two spots on each side with 0.1 ml per spot. After 48 hours, a 1.0 ml mixed solution of 1% Evans Blue and 1% ovalbumin in physiological saline was injected into the tail vein of each rat. […] The rats were then sacrificed, and their back skin was inverted to measure the diameter of blue reaction spots to determine the difference between the dosing groups and the model group. A sample of the rat skin tissue was fixed with neutral formaldehyde, dehydrated with an alcohol gradient, embedded in paraffin, and examined for mast cell degranulation in the tissue^[3]. […] On day 15, the back of the rats were shaved, and was intradermally injected with a diluted antiserum at two spots on each side with 0.1 ml per spot. After 48 hours, a 1.0 ml mixed solution of 1% Evans Blue and 1% ovalbumin in physiological saline was injected into the tail vein of each rat. […] The rats were then sacrificed, and their back skin was inverted to measure the diameter of blue reaction spots to determine the difference between the dosing groups and the model group. A sample of the rat skin tissue was fixed with neutral formaldehyde, dehydrated with an alcohol gradient, embedded in paraffin, and examined for mast cell degranulation in the tissue^[3]. […] On day 15, the back of the rats were shaved, and was intradermally injected with a diluted antiserum at two spots on each side with 0.1 ml per spot. After 48 hours, a 1.0 ml mixed solution of 1% Evans Blue and 1% ovalbumin in physiological saline was injected into the tail vein of each rat. […] The rats were then sacrificed, and their back skin was inverted to measure the diameter of blue reaction spots to determine the difference between the dosing groups and the model group. A sample of the rat skin tissue was fixed with neutral formaldehyde, dehydrated with an alcohol gradient, embedded in paraffin, and examined for mast cell degranulation in the tissue^[3]. […] On day 15, the back of the rats were shaved, and was intradermally injected with a diluted antiserum at two spots on each side with 0.1 ml per spot. After 48 hours, a 1.0 ml mixed solution of 1% Evans Blue and 1% ovalbumin in physiological saline was injected into the tail vein of each rat. […] The rats were then sacrificed, and their back skin was inverted to measure the diameter of blue reaction spots to determine the difference between the dosing groups and the model group.

[2] = test system: local itching in mice caused by low-molecular-weight dextran; test: Local itching in mice caused by low-molecular-weight dextran; format: in vivo, Kunming mice
Description: Intragastric administration was carried out to the mice once per day for 10 consecutive days. 30 min after the final administration, a 0.0125% low-molecular-weight dextran solution was injected at 0.1 g/10 g into the tail vein. The number of itching events (itching events were indicated by scratching on the head with front paws, scratching on the body with hind paws, and biting on various parts over the body) occurred within 30 min after injection with the low-molecular-weight dextran solution into tail veins of the mice in each group was observed and recorded. […] The number of itching events (itching events were indicated by scratching on the head with front paws, scratching on the body with hind paws, and biting on various parts over the body) occurred within 30 min after injection with the low-molecular-weight dextran solution into tail veins of the mice in each group was observed and recorded. […] The number of itching events (itching events were indicated by scratching on the head with front paws, scratching on the body with hind paws, and biting on various parts over the body) occurred within 30 min after injection with the low-molecular-weight dextran solution into tail veins of the mice in each group was observed and recorded. […] The number of itching events (itching events were indicated by scratching on the head with front paws, scratching on the body with hind paws, and biting on various parts over the body) occurred within 30 min after injection with the low-molecular-weight dextran solution into tail veins of the mice in each group was observed and recorded.

[3] = test system: delayed hypersensitivity in mouse auricle skin caused by 2,4-dinitrochlorobenzene; test: Delayed hypersensitivity in mouse auricle skin caused by 2,4-dinitrochlorobenzene; format: in vivo, Kunming mice; conditions: mice
Description: A 5% 2,4-dinitrochlorobenzene solution in ethanol was applied onto the abdominal skin (shaved) of the mice for sensitization. […] 7 days after sensitization, a 1% 2,4-dinitrochlorobenzene solution was applied onto the right ear, and the mice were sacrificed after 24 hours, and both ears were cut off along the auricle baseline. Discs having a diameter of 8 mm were punctured out at the same position on both ears, precisely weighed on an electronic balance, and the weight difference between the left and right ears was taken as the value for delayed hypersensitivity.

[4] = prednisone 5.0 mg, Composition 6 study
[5] = prednisone 5.0 mg, Composition 7 study
[6] = prednisone 5.0 mg, Composition 8 study

SMILES: C[C@]12C=CC(=O)C=C1CC[C@@H]1[C@@H]2C(=O)C[C@@]2(C)[C@H]1CC[C@]2(O)C(=O)CO [prednisone]
- Diameter of blue spots 1:4 [1, 4]: 13.22 ± 1.90 mm
- Diameter of blue spots 1:4 [1, 5]: 12.48 ± 2.16 mm
- Diameter of blue spots 1:4 [1, 6]: 12.82 ± 2.62 mm
- Diameter of blue spots 1:8 [1, 4]: 8.65 ± 1.52 mm
- Diameter of blue spots 1:8 [1, 5]: 8.32 ± 1.63 mm
- Diameter of blue spots 1:8 [1, 6]: 8.54 ± 1.82 mm
- Diameter of blue spots (mm) 1:4 ([1]; antiserum 1:4, positive control prednisone 5.0 mg (5 mg/kg) i.g. once daily 14 days): 12.79 ± 1.88 mm and 11.94 ± 1.90 mm and 11.35 ± 1.74 mm
- Diameter of blue spots (mm) 1:8 ([1]; antiserum 1:8, positive control prednisone 5.0 mg (5 mg/kg) i.g. once daily 14 days): 6.72 ± 1.31 mm
- Degranulation (mast cell) [1, 4]: 19.80 ± 10.57
- Histamine fluorescence (serum histamine content) [1, 4]: 2.07 ± 0.76 mg·L
- Degranulation (mast cell) [1, 5]: 17.54 ± 11.23
- Histamine fluorescence (serum histamine content) [1, 5]: 2.11 ± 0.70 mg·L
- Degranulation (mast cell) [1, 6]: 17.95 ± 11.82
- Histamine fluorescence (serum histamine content) [1, 6]: 2.25 ± 0.76 mg·L
- Degranulation (mast cell) ([1]; skin tissue, positive control prednisone 5.0 mg (5 mg/kg) i.g. once daily 14 days): 22.54 ± 11.25 and 19.46 ± 8.72 and 21.33 ± 10.48
- Number of itching events (30 min) [2, 4]: 15.43 ± 4.56
- Number of itching events (30 min) [2, 5]: 15.57 ± 5.33
- Number of itching events (30 min) [2, 6]: 14.88 ± 5.08
- Number of itching events (30 min) ([2]; within 30 min after dextran, positive control prednisone 5.0 mg i.g. once daily 10 days): 18.30 ± 4.62 and 14.25 ± 6.72 and 17.20 ± 4.08
- swelling degree of mouse auricle discs ([3]; positive control prednisone 5.0 mg (5 mg/kg) i.g. once daily 10 days): 5.07 ± 0.59 mg and 4.22 ± 0.96 mg and 4.80 ± 0.73 mg
- swelling degree of mouse auricle discs [3, 4]: 4.62 ± 0.79 mg
- swelling degree of mouse auricle discs [3, 5]: 4.84 ± 0.70 mg
- swelling degree of mouse auricle discs [3, 6]: 4.60 ± 0.82 mg
